Reference: patent US9433621B2, “Substituted pyridine and pyrimidine derivatives and their use in treating viral infections” (Merck Sharp & Dohme Corp., priority 2010, dated 2016)
Where two headings read alike, the source gives them in different places.

Test system: HCV replicon
Assay: Cell-Based HCV Replicon Assay
Settings: Hepatitis C virus
Procedure: Cell-Based HCV Replicon Assay
To measure cell-based anti-HCV activity of the compounds of the present invention, replicon cells were seeded at 5000 cells/well in 96-well collagen I-coated Nunc plates in the presence of the compound of the invention. Various concentrations of a compound of the invention, typically in 10 serial 2-fold dilutions, were added to the assay mixture, the starting concentration of the compound ranging from 25 μM to 1 μM. The final concentration of DMSO was 0.5%, fetal bovine serum was 10%, in the assay media. Cells were harvested on day 3 by the addition of 1× cell lysis buffer (Ambion cat #8721). The replicon RNA level was measured using real time PCR (Taqman assay). The amplicon was located in 5B. The PCR primers were: 5B.2F, ATGGACAGGCGCCCTGA; 5B.2R, […]; the probe sequence was FAM-labeled CACGCCATGCGCTGCGG. GAPDH RNA was used as endogenous control and was amplified in the same reaction as NS5B (multiplex PCR) using primers and VIC-labeled probe recommended by the manufacturer (PE Applied Biosystem). The real-time RT-PCR reactions were run on ABI PRISM® 7900HT Sequence Detection System using the following program: 48′C for 30 min, 95′C for 10 min, 40 cycles of 95′C for 15 sec, 60′C for 1 min. The ΔCT values (CT5B-CTGAPDH) were plotted against the concentration of test compound and fitted to the sigmoid dose-response model using Graph Pad PRISM® software. EC50 was defined as the concentration of inhibitor necessary to achieve ΔCT=1 over the projected baseline; EC90 the concentration necessary to achieve ΔCT=3.2 over the baseline. Alternatively, to quantitate the absolute amount of replicon RNA, a standard curve was established by including serially diluted T7 transcripts of replicon RNA in the Taqman assay. All Taqman reagents were from PE Applied Biosystems. Such an assay procedure was described in detail in e.g. Malcolm et al., Antimicrobial Agents and Chemotherapy 50: 1013-1020 (2006).
HCV Replicon assay data for compounds of the invention that were tested were obtained using the above method.

[1] = 72 h, Table V, class codes, replicon cells, day 3, real time PCR, EC90 = concentration for ΔCT=3.2 over baseline, read-out: EC90 (uM) range
[2] = HCV Replicon assay, EC90 range, Table VI, read-out: EC90

Cc1nc(NCC2CC2)nc(N[C@@H]2C[C@H](C(=O)N3CCOCC3)[C@@H](O)[C@H]2O)c1-c1nc2c(C3CC3)nccc2s1 [Example 4924]
EC90 [1]: < 0.5 µM

Cc1nc(N)nc(N[C@@H]2C[C@H](C(=O)N3CCOCC3)[C@@H](O)[C@H]2O)c1-c1nc2c(C3CC3)nccc2s1 [Example 4925]
EC90 [1]: < 0.5 µM

COCCNc1nc(C)c(-c2nc3c(C4CC4)nccc3s2)c(N[C@@H]2C[C@H](C(=O)Nc3nccs3)[C@@H](O)[C@H]2O)n1 [Example 4926]
EC90 [1]: < 0.5 µM

Cc1nc(NCC2CC2)nc(N[C@@H]2C[C@H](C(=O)Nc3nccs3)[C@@H](O)[C@H]2O)c1-c1nc2c(C3CC3)nccc2s1 [Example 4927]
EC90 [1]: < 0.5 µM

Cc1nc(N[C@H](C)c2ccc(OC(F)(F)F)cc2)nc(N[C@@H]2C[C@H](C(=O)Nc3nccs3)[C@@H](O)[C@H]2O)c1-c1nc2c(C3CC3)nccc2s1 [Example 4928]
EC90 [1]: < 0.5 µM

Cc1nc(N)nc(N[C@@H]2C[C@H](C(=O)NC(C)(C)C)[C@@H](O)[C@H]2O)c1-c1nc2c(C3CC3)nccc2s1 [Example 4929]
EC90 [1]: < 0.5 µM

COCCNc1nc(C)c(-c2nc3c(C4CC4)nccc3s2)c(N[C@@H]2C[C@H](C(=O)NC(C)(C)C)[C@@H](O)[C@H]2O)n1 [Example 4930]
EC90 [1]: < 0.5 µM

Cc1nc(NCC2CC2)nc(N[C@@H]2C[C@H](C(=O)NC(C)(C)C)[C@@H](O)[C@H]2O)c1-c1nc2c(C3CC3)nccc2s1 [Example 4931]
EC90 [1]: < 0.5 µM

Cc1nc(N[C@H](C)c2ccc(F)cc2)nc(N[C@@H]2C[C@H](CO)[C@@H](O)[C@H]2O)c1-c1nc2c(C3CC3)nccc2s1 [Example 4932]
EC90 [1]: < 0.5 µM

Cc1cccc([C@@H](C)Nc2nc(C)c(-c3nc4c(C5CC5)nccc4s3)c(N[C@@H]3C[C@H](CO)[C@@H](O)[C@H]3O)n2)c1 [Example 4933]
EC90 [1]: < 0.5 µM

Cc1ccccc1[C@@H](C)Nc1nc(C)c(-c2nc3c(C4CC4)nccc3s2)c(N[C@@H]2C[C@H](CO)[C@@H](O)[C@H]2O)n1 [Example 4934]
EC90 [1]: < 0.5 µM

Cc1nccc2sc(-c3cnc(NCC4CC4)nc3N[C@@H]3C[C@H](C(C)(C)O)[C@@H](O)[C@H]3O)nc12 [Example 4935]
EC90 [1]: < 0.5 µM

CCSCCNc1ncc(-c2nc3c(C)nccc3s2)c(N[C@@H]2C[C@H](C(C)(C)O)[C@@H](O)[C@H]2O)n1 [Example 4936]
EC90 [1]: < 0.5 µM

Cc1nccc2sc(-c3cnc(N)nc3N[C@@H]3C[C@H](C(C)(C)O)[C@@H](O)[C@H]3O)nc12 [Example 4937]
EC90 [1]: 0.5 to 5 µM

COCCNc1ncc(-c2nc3c(C)nccc3s2)c(N[C@@H]2C[C@H](C(C)(C)O)[C@@H](O)[C@H]2O)n1 [Example 4938]
EC90 [1]: < 0.5 µM

CO[C@H](C)CNc1ncc(-c2nc3c(C)nccc3s2)c(N[C@@H]2C[C@H](C(C)(C)O)[C@@H](O)[C@H]2O)n1 [Example 4939]
EC90 [1]: < 0.5 µM

Cc1nccc2sc(-c3cnc(NCCSC(C)(C)C)nc3N[C@@H]3C[C@H](C(C)(C)O)[C@@H](O)[C@H]3O)nc12 [Example 4940]
EC90 [1]: < 0.5 µM

COC[C@@H](C)Nc1ncc(-c2nc3c(C)nccc3s2)c(N[C@@H]2C[C@H](C(C)(C)O)[C@@H](O)[C@H]2O)n1 [Example 4941]
EC90 [1]: < 0.5 µM

Cc1nc(NCC2CC2)nc(N[C@@H]2C[C@H](CO)[C@@H](O)[C@H]2O)c1-c1nc2cnc(C3CC3)cc2s1 [Example 4942]
EC90 [1]: < 0.5 µM

COCCNc1nc(C)c(-c2nc3cnc(C4CC4)cc3s2)c(N[C@@H]2C[C@H](CO)[C@@H](O)[C@H]2O)n1 [Example 4943]
EC90 [1]: < 0.5 µM

Cc1nc(N[C@H](C)c2ccc(OC(F)(F)F)cc2)nc(N[C@@H]2C[C@H](CO)[C@@H](O)[C@H]2O)c1-c1nc2cnc(C3CC3)cc2s1 [Example 4944]
EC90 [1]: < 0.5 µM

Cc1nc(N)nc(N[C@@H]2C[C@H](CO)[C@@H](O)[C@H]2O)c1-c1nc2cnc(C3CC3)cc2s1 [Example 4945]
EC90 [1]: < 0.5 µM

COCCNc1nc(C)c(-c2nc3cnc(C)cc3s2)c(N[C@@H]2C[C@H](CO)[C@@H](O)[C@H]2O)n1 [Example 4946]
EC90 [1]: < 0.5 µM

Cc1nc(N[C@H](C)c2ccc(OC(F)(F)F)cc2)nc(N[C@@H]2C[C@H](C(=O)NC(C)(C)C)[C@@H](O)[C@H]2O)c1-c1nc2c(C3CC3)nccc2s1 [Example 4947]
EC90 [1]: < 0.5 µM

Cc1nc(N)nc(N[C@@H]2C[C@H](C(=O)Nc3ccccc3)[C@@H](O)[C@H]2O)c1-c1nc2c(C3CC3)nccc2s1 [Example 4948]
EC90 [1]: < 0.5 µM

COCCNc1nc(C)c(-c2nc3c(C4CC4)nccc3s2)c(N[C@@H]2C[C@H](C(=O)Nc3ccccc3)[C@@H](O)[C@H]2O)n1 [Example 4949]
EC90 [1]: < 0.5 µM

Cc1nc(NCC2CC2)nc(N[C@@H]2C[C@H](C(=O)Nc3ccccc3)[C@@H](O)[C@H]2O)c1-c1nc2c(C3CC3)nccc2s1 [Example 4950]
EC90 [1]: < 0.5 µM

Cc1nc(N[C@H](C)c2ccc(OC(F)(F)F)cc2)nc(N[C@@H]2C[C@H](C(=O)Nc3ccccc3)[C@@H](O)[C@H]2O)c1-c1nc2c(C3CC3)nccc2s1 [Example 4951]
EC90 [1]: 0.5 to 5 µM

Cc1cc2sc(-c3c(C)nc(N[C@H](C)C4CC4)nc3N[C@@H]3C[C@H](CO)[C@@H](O)[C@H]3O)nc2cn1 [Example 4952]
EC90 [1]: < 0.5 µM

CO[C@H](C)CNc1nc(C)c(-c2nc3cnc(C)cc3s2)c(N[C@@H]2C[C@H](CO)[C@@H](O)[C@H]2O)n1 [Example 4953]
EC90 [1]: < 0.5 µM

COCCNc1nc(C)c(-c2nc3c(C)nccc3s2)c(N[C@@H]2C[C@H](C(C)(C)F)[C@@H](O)[C@H]2O)n1 [Example 4954]
EC90 [1]: < 0.5 µM

Cc1nc(N[C@H](C)c2ccc(OC(F)(F)F)cc2)nc(N[C@@H]2C[C@H](C(=O)Nc3ccncc3)[C@@H](O)[C@H]2O)c1-c1nc2c(C3CC3)nccc2s1 [Example 4955]
EC90 [1]: < 0.5 µM

COCCNc1nc(C)c(-c2nc3c(C4CC4)nccc3s2)c(N[C@@H]2C[C@H](C(=O)Nc3ccncc3)[C@@H](O)[C@H]2O)n1 [Example 4956]
EC90 [1]: < 0.5 µM

Cc1nc(NCC2CC2)nc(N[C@@H]2C[C@H](C(=O)Nc3ccncc3)[C@@H](O)[C@H]2O)c1-c1nc2c(C3CC3)nccc2s1 [Example 4957]
EC90 [1]: < 0.5 µM

Cc1ccc(S(=O)(=O)C[C@H]2C[C@@H](Nc3nc(NCCSC(C)(C)C)nc(C)c3-c3nc4c(C)nccc4s3)[C@H](O)[C@@H]2O)cc1F [Example 5001]
EC90 [2]: < 0.5 µM

Cc1cc(S(=O)(=O)C[C@H]2C[C@@H](Nc3nc(NC4CC4)nc(C)c3-c3nc4c(C)nccc4s3)[C@H](O)[C@@H]2O)ccc1F [Example 5002]
EC90 [2]: < 0.5 µM

Cc1ccc(S(=O)(=O)C[C@H]2C[C@@H](Nc3nc(NC4CC4)nc(C)c3-c3nc4c(C)nccc4s3)[C@H](O)[C@@H]2O)cc1F [Example 5003]
EC90 [2]: < 0.5 µM

Cc1nc(NC2CC2)nc(N[C@@H]2C[C@H](CS(=O)(=O)c3ccc(F)c(F)c3)[C@@H](O)[C@H]2O)c1-c1nc2c(C)nccc2s1 [Example 5004]
EC90 [2]: < 0.5 µM

COc1ccc(S(=O)(=O)C[C@H]2C[C@@H](Nc3nc(NC4CC4)nc(C)c3-c3nc4c(C)nccc4s3)[C@H](O)[C@@H]2O)cc1F [Example 5005]
EC90 [2]: < 0.5 µM

Cc1cc(S(=O)(=O)C[C@H]2C[C@@H](Nc3nc(NCCSC(C)(C)C)nc(C)c3-c3nc4c(C)nccc4s3)[C@H](O)[C@@H]2O)ccc1F [Example 5006]
EC90 [2]: < 0.5 µM

Cc1nc(NCCSC(C)(C)C)nc(N[C@@H]2C[C@H](CS(C)(=O)=O)[C@@H](O)[C@H]2O)c1-c1nc2c(C3CC3)nccc2s1 [Example 5007]
EC90 [2]: < 0.5 µM

Cc1cc(S(=O)(=O)C[C@H]2C[C@@H](Nc3nc(NCC4CC4)nc(C)c3-c3nc4c(C)nccc4s3)[C@H](O)[C@@H]2O)ccc1F [Example 5008]
EC90 [2]: < 0.5 µM

Cc1cc(S(=O)(=O)C[C@H]2C[C@@H](Nc3nc(NCC(F)(F)F)nc(C)c3-c3nc4c(C)nccc4s3)[C@H](O)[C@@H]2O)ccc1F [Example 5009]
EC90 [2]: < 0.5 µM

Cc1cc(S(=O)(=O)C[C@H]2C[C@@H](Nc3nc(NCC(C)(C)C)nc(C)c3-c3nc4c(C)nccc4s3)[C@H](O)[C@@H]2O)ccc1F [Example 5010]
EC90 [2]: < 0.5 µM

COCCNc1nc(C)c(-c2nc3c(C)nccc3s2)c(N[C@@H]2C[C@H](CS(=O)(=O)c3ccc(F)c(C)c3)[C@@H](O)[C@H]2O)n1 [Example 5011]
EC90 [2]: < 0.5 µM

CO[C@H](C)CNc1nc(C)c(-c2nc3c(C)nccc3s2)c(N[C@@H]2C[C@H](CS(=O)(=O)c3ccc(F)c(C)c3)[C@@H](O)[C@H]2O)n1 [Example 5012]
EC90 [2]: < 0.5 µM

COc1ccc(S(=O)(=O)C[C@H]2C[C@@H](Nc3nc(NCC4CC4)nc(C)c3-c3nc4c(C)nccc4s3)[C@H](O)[C@@H]2O)cc1F [Example 5013]
EC90 [2]: < 0.5 µM

COc1ccc(S(=O)(=O)C[C@H]2C[C@@H](Nc3nc(NCCSC(C)(C)C)nc(C)c3-c3nc4c(C)nccc4s3)[C@H](O)[C@@H]2O)cc1F [Example 5014]
EC90 [2]: < 0.5 µM

C#CCCNc1nc(C)c(-c2nc3c(C4CC4)nccc3s2)c(N[C@@H]2C[C@H](CS(C)(=O)=O)[C@@H](O)[C@H]2O)n1 [Example 5015]
EC90 [2]: < 0.5 µM
